Laboratory results as given in patent US20050171216A1, “Germicidal compositions containing phthalaldehyde mixtures and methods of using such compositions for disinfection or sterilization” (priority 2004, published 2005).
Blank lines part the entries; values can stand above or below the compound they belong to.

Experiments:
solubility in water = type: physicochemical; conditions: for Concentration, Saturated: saturated aqueous germicidal solution, pH not adjusted
[1] = test system: Mycobacterium terrae bacteria; assay: bacterial suspension test (killing of at least 1×10^6/mL bacteria); type: cell-based; conditions: for Log Reductions/mL: 20° C.; for Germicidal Efficacy: summary Table 14
Procedure: The bacterial suspension test that was employed is described in Section VII.
The solutions were prepared by adding the appropriate amounts of the germicidal compounds to an aqueous solution. Unless otherwise mentioned all concentrations reported herein are expressed in (w/v) %. The pH of the solution was not adjusted. The tests were conducted at a temperature of about 20° C. (room temperature). The results are presented in terms of log reductions/mL. It is understood that these examples, as well as the other examples herein, are to be construed as merely illustrative, and not limiting.
In this test method, 9 mL of the germicide to be tested is placed in a tube, put into a water bath and allowed to come to the desired temperature. One mL of the test organism, including at least 7 logs/mL of Mycobacterium terrae bacteria, is added to the 9 mL of the germicide to be tested. […] It will be appreciated by those skilled in the art that other concentrations may be utilized by proper dilution and accounting.
At appropriate time intervals, 1 mL aliquots of the germicide-cell suspension were removed and added directly into 9 mL of a 1% glycine solution (neutralizer) and mixed thoroughly to neutralize the germicide in the transferred suspension. The glycine solution was prepared from solid glycine, which is available from VWR Scientific Products, among others. The above-identified 10 mL neutralized solution was then poured through a membrane filter having an average pore size of 0.45 micrometers. The filter was then rinsed twice with at least 150 mL of the 1% glycine solution per rinse. The filter was then placed on an agar plate and incubated for twenty-one days at 37° C. In the above procedure, if dilution was needed, then the 1 mL germicidal-cell suspension was diluted in 99 mL of a phosphate buffer before addition to the 9 mL of the 1% glycine solution. The phosphate buffer was DiLu-LoK™ Butterfields Phosphate Buffer, available from Hardy Diagnostics, of Santa Maria, Calif.
The surviving colonies are then counted. The data is plotted as S/So vs. time. So is the initial count of the bacteria in the above 10 mL solution which is at least 10^6 bacteria/mL, and S is the surviving bacteria from the above filter on the agar plate. The results of the experiments were presented in terms of log reductions. Log reduction is the difference between log(So) and log(S). As one example, if log(So)=6.2, and if there were 100 survivors, then the log(S)=2, and the log reduction was reported as 4.2.

Compound: 4-pyridinyl-propanedial
Concentration, Saturated (solubility in water): (˜2.3%) w/v %
Log Reductions/mL ([1]; Saturated (˜2.3% w/v), 5 min): 4.0 log reductions/mL

Compound: O=CC(c1ccccc1)C(O)S(=O)(=O)[O-].[Na+] (stereo not drawn) [1-hydroxy-3-oxo-2-phenyl-propane-1-sulfonic acid, sodium salt]
Log Reductions/mL ([1]; 0.6%, 5 min): 2.1 log reductions/mL
Log Reductions/mL ([1]; 0.6%, 20 min): 2.5 log reductions/mL
Log Reductions/mL ([1]; 0.6%, 25 min): 2.9 log reductions/mL
Log Reductions/mL ([1]; 0.6%, 60 min, sodium salt): total kill
Log Reductions/mL ([1]; 2.5%, 10 min, sodium salt): total kill

Compound: O=CC(C=O)c1cccc(C(=O)O)c1[N+](=O)[O-] [3-(1-formyl-2-oxoethyl)-2-nitro-benzoic acid]
Concentration, Saturated (solubility in water): (˜2.1%) w/v %
Log Reductions/mL ([1]; Saturated (˜2.1% w/v), 5 min): 4.0 log reductions/mL

Compound: O=Cc1ccc(Br)cc1C=O [4-bromo-phthalaldehyde]
Log Reductions/mL ([1]; 0.1%, 10 minutes): 5.6 log reductions/mL
Log Reductions/mL ([1]; 0.1%, 30 minutes): Total Kill

Compound: O=Cc1ccc(Cl)cc1C=O [4-chloro-phthalaldehyde]
Log Reductions/mL ([1]; 0.2 w/v %, 5 min): 5.9 log reductions/mL
Log Reductions/mL ([1]; 2.7 w/v % in 20% isopropanol, 5 min): Total Kill

Compound: O=Cc1ccc(F)cc1C=O [4-fluoro-phthalaldehyde]
Log Reductions/mL ([1]; 0.25%, 60 minutes exposure): Total Kill

Compound: O=Cc1ccccc1C(O)S(=O)(=O)[O-].[Na+] (stereo not drawn) [(2-formyl-phenyl)-hydroxy-methane sulfonic acid, sodium salt]
Log Reductions/mL ([1]; 9.1%, no dialdehyde, 5 min, listed as (2-formyl-phenyl)-hydroxy-methane sulfonate, sodium salt): confluent
Log Reductions/mL ([1]; 9.1%, no dialdehyde, 5 min, listed as H-SULF, sodium salt): Confluent

Compound: O=Cc1cccc(C=O)c1 [IPA, isophthalaldehyde]
Log Reductions/mL ([1]; 0.3%, dissolved in 20% isopropanol, 5 min): Confluent
Log Reductions/mL ([1]; 0.3%, dissolved in 20% isopropanol, 5 min (Table 15)): Confluent
Germicidal Efficacy [1]: Poor

solubility in water (solubility in water): about 5 % by weight
Compound: O=Cc1ccccc1C=O [OPA, phthalaldehyde]
Log Reductions/mL ([1]; 0.14%, 5 min): 4.8 log reductions/mL
Log Reductions/mL ([1]; 0.28%, 5 min): 5.5 log reductions/mL
Germicidal Efficacy [1]: Good

Compound: O=Cc1ccc(C=O)cc1 [TPA, terephthalaldehyde]
Log Reductions/mL ([1]; 0.2%, dissolved in 20% isopropanol, 5 min): Confluent
Germicidal Efficacy [1]: Poor

solubility in water (solubility in water): about 1%
Compound: O=CC(C=O)c1ccccc1 [phenyl-propanedial]
Log Reductions/mL ([1]; 0.2%, 60 min): 2.1 log reductions/mL
Log Reductions/mL ([1]; 0.22%, 60 min): 2.1 log reductions/mL
Log Reductions/mL ([1]; 0.3%, 30 min): 2.1 log reductions/mL
Log Reductions/mL ([1]; 0.33%, 30 min): 2.1 log reductions/mL
Log Reductions/mL ([1]; 0.4%, 30 min): 2.5 log reductions/mL
Log Reductions/mL ([1]; 0.44%, 30 min): 2.5 log reductions/mL
Log Reductions/mL ([1]; 0.66%, 5 min): <2.5 log reductions/mL
Log Reductions/mL ([1]; 0.66%, 10 min): 2.5 log reductions/mL
Log Reductions/mL ([1]; 0.7%, 10 min): 2.5 log reductions/mL
Log Reductions/mL ([1]; ˜1%, 5 min (Table 15)): 4.5 log reductions/mL
